We go through two molecules from patent US11660345B2, “Method and composition for enhancing the delivery of anti-platelet drugs for the treatment of acute stroke” (Realinn Life Science Limited, priority 2013, dated 2023).

In one data set the test system is mouse stroke model. Conditions: intravenous injection of 100 mg/kg; cited from earlier work.
Data set [1] deals with middle cerebral artery occlusion (MCAO) model in mice. The experiment in a line: Neurobehavioral test (motor neurobehavior evaluation score 0-4) in mice of the middle cerebral artery occlusion model. The class given is in vivo. Conditions: 10 mg/kg (2 mg/mL) tail vein injection 5 hours after stroke, higher score = higher motor dysfunction (vehicle control 3). The method, then:
(§1) In order to simulate human brain stroke, an intravascular suture-occluded method was employed to establish a middle cerebral artery occlusion (MCAO) model in mice. Prior to experimentation, the body weights of the mice were measured and rectum temperatures were recorded. The mice were anesthetized with 4% halothane in 100% O2 followed by 0.5-1% halothane in 70% N2O and 30% O2 to maintain the anesthetized status. The mouse cerebral artery occlusion model is established according to the Tamura method (Focal cerebral ischemia in the rat: 1. Description of technique and early neuropathological consequences following middle cerebral artery occlusion. J Cereb Blood Flow Metab. 1981; 1(1):53-60. Tamura A, Graham D I, McCulloch J, Teasdale G M). […]
The body weights of the mice in the three test groups in Example 4 were measured and neurological examination was conducted concurrently. […] Since 15 days after stroke is no longer the acute stroke phase, the invention evaluated the status of the motor system of mice treated within the acute stroke phase and those treated after the acute stroke phase. The motor responses to be assessed are listed in Table 1 (Middle cerebral artery occlusion in the rat by intraluminal suture. Neurological and pathological evaluation of an improved model. Belayev L, Alonso O F, Busto R, Zhao W, Ginsberg M D. Stroke. 1996 September; 27(9):1616-22; discussion 1623). […]

For data set [2] the test system is unchanged. The experiment in a line: Brain infarct volume, atrophy and edema by Nissl staining in mice of the middle cerebral artery occlusion model. The class given is in vivo. Particulars: 10 mg/kg (2 mg/mL). The method, then: as §1, with “M). The mouse was secured in prone position and an incision was introduced to the lateral of the head and neck portion by a scalpel to expose the right common carotid artery. The middle cerebral artery (MCA) was cauterized to simulate ischemia.” for “M).”
The mice of the middle cerebral artery occlusion model were sacrificed 15 days after the treatment with the three groups of drugs. Brain samples of the mice were collected and local ischemic injuries on the neuron gray matter of the mice brains were evaluated with Nissl staining using cresyl violet. […]

On to `OCCN(CCO)c1nc(N2CCCCC2)c2nc(N(CCO)CCO)nc(N3CCCCC3)c2n1` [Dipyridamole], for which, in the data set on mouse stroke model, the “hypotension / mortality (in words)” value is “causes hypotension and increases the mortality rate”; the “infarct volume (in words)” value is reported as “can efficiently reduce the infarct volume”.

As for “recombinant-type plasminogen activator: recombinant-type plasminogen activator (rt-PA), thrombolytic agent”, the figures for the “score of the motor neurobehavior evaluation” value in data set [1] (after 7 days of treatment) and in data set [1] (after 15 days of treatment) were 2.3 and 2.6, respectively. Besides, the brain infarct volume entry in data set [2] (5 hours after stroke, 15 days after treatment (vehicle control about 14%)) is listed as “about 18%”. Moreover, in data set [2] (15 days after treatment), the “brain atrophy (Nissl staining / infarct volume calculation)” value is reported as “atrophied after 15 days”.
